PMC11742280, “A phase I study of MLN4924 and belinostat in relapsed/refractory acute myeloid leukemia or myelodysplastic syndrome” (Cancer Chemotherapy and Pharmacology, 2025)
Where two headings read alike, the source gives them in different places.

What was measured:
high-risk MDS = tested on: high-risk MDS; parameters: method as in PMID 35728048; settings: pevonedistat 20 mg/m^2 D1,3,5 in combination with azacitidine; subset with high-risk MDS, post-hoc analysis, non-statistically significant improvement; cited from earlier work
[1] = tested on: xenograft models of solid tumors, lymphoma, and AML; parameters: method as in PMID 20203261, PMID 20525923, PMID 23633453, PMID 22562464; settings: cited from earlier work
[2] = parameters: method as in PMID 31097586, PMID 33441097; settings: e.g. value, compared with clinical Cmax; cited from earlier work
[3] = Plasma pharmacokinetics of pevonedistat (LC/MS/MS, noncompartmental analysis); format: in vivo, human; settings: for Cmax: read-out: preEOI Cmax (peak plasma concentration); for clearance: read-out: Cl (systemic clearance) (converted)
Description: Plasma was stored at − 80 °C until analysis.
Pharmacokinetic parameters were summarized using descriptive statistics.

AML = tested on: AML; parameters: method as in PMID 25733005; settings: cited from earlier work
[4] = cycle 1 day 1, dose level 1, pevonedistat 20 mg/m^2 IV (belinostat 800 mg/m^2), n=2, actual values
[5] = human, plasma, iv, 37 mg/m2, cycle 1 day 1, pevonedistat 37 mg/m^2 IV, all 37 mg/m^2 patients (dose levels 3-4), mean±SD, n=6
[6] = human, plasma, iv, cycle 1 day 1, dose level 1, pevonedistat 20 mg/m^2 IV (belinostat 800 mg/m^2), n=2, actual values
[7] = human, plasma, iv, cycle 1 day 1, dose level 2, pevonedistat 25 mg/m^2 IV (belinostat 800 mg/m^2), mean±SD, n=3
[8] = human, plasma, iv, cycle 1 day 1, dose level 3, pevonedistat 37 mg/m^2 IV (belinostat 800 mg/m^2), mean±SD, n=3
[9] = human, plasma, iv, cycle 1 day 1, dose level 4, pevonedistat 37 mg/m^2 IV (belinostat 1000 mg/m^2), mean±SD, n=3

Compound: NS(=O)(=O)OC[C@@H]1C[C@@H](n2ccc3c(N[C@H]4CCc5ccccc54)ncnc32)C[C@@H]1O [Pevonedistat]
- Survival (high-risk MDS): 23.8 mos
- Effect on tumor growth [1]: inhibition of tumor growth
- Concentrations shown to exert activity in preclinical studies [2]: 100 to 200 nM
- Pevonedistat AUCINF by BSA-based dose ([3]; 37 mg/m^2 compared with 20 or 25 mg/m^2, p = 0.02, Kruskal–Wallis): significantly higher
- AUCINF [3, 4]: 2.85 µM·h
- Cl (systemic clearance) [3, 4]: 28.5 L/h
- T1/2 [3, 4]: 6.12 h
- Cmax [3, 4]: 311 nM
- Cl (systemic clearance) ([3]; cycle 1 day 1, dose level 3, pevonedistat 37 mg/m^2 IV (belinostat 800 mg/m^2), mean±SD, n=3): 34.9 ± 2.9 (3) L/hr
- Cl (systemic clearance) ([3]; cycle 1 day 1, dose level 4, pevonedistat 37 mg/m^2 IV (belinostat 1000 mg/m^2), mean±SD, n=3): 35.5 ± 8.3 (3) L/hr
- Cl (systemic clearance) ([3]; cycle 1 day 1, pevonedistat 37 mg/m^2 IV, all 37 mg/m^2 patients (dose levels 3-4), mean±SD, n=6): 35.2 ± 5.6 (6) L/hr
- Pharmacokinetic parameters compared between dose levels ([3]; dose levels 1-4, Kruskal–Wallis): not different by dose level
- AUC(0-inf) [3, 5]: 4.78 ± 0.958 µM·h
- half-life [3, 5]: 5.79 ± 0.99 h
- Cmax [3, 5]: 869 ± 290 nM
- Tmax ([3]; human, plasma, iv, 37 mg/m2, cycle 1 day 1, pevonedistat 37 mg/m^2 IV, all 37 mg/m^2 patients (dose levels 3-4), median (range; n)): 0.9 h
- AUC(0-inf) [3, 6]: 2.28 µM·h
- Tmax [3, 6]: 0.4 h
- half-life [3, 6]: 5.89 h
- clearance [3, 6]: 627 mL/min
- Cmax [3, 6]: 278 nM
- AUC(0-inf) [3, 7]: 2.95 ± 0.666 µM·h
- half-life [3, 7]: 6.52 ± 1.38 h
- clearance [3, 7]: 625 mL/min
- Cmax [3, 7]: 372 ± 93.2 nM
- Tmax ([3]; human, plasma, iv, cycle 1 day 1, dose level 2, pevonedistat 25 mg/m^2 IV (belinostat 800 mg/m^2), median (range; n)): 0.6 h
- AUC(0-inf) [3, 8]: 4.95 ± 0.426 µM·h
- half-life [3, 8]: 5.97 ± 0.34 h
- Cmax [3, 8]: 897 ± 26 nM
- Tmax ([3]; human, plasma, iv, cycle 1 day 1, dose level 3, pevonedistat 37 mg/m^2 IV (belinostat 800 mg/m^2), median (range; n)): 0.9 h
- AUC(0-inf) [3, 9]: 4.6 ± 1.42 µM·h
- half-life [3, 9]: 5.61 ± 1.5 h
- Cmax [3, 9]: 841 ± 455 nM
- Tmax ([3]; human, plasma, iv, cycle 1 day 1, dose level 4, pevonedistat 37 mg/m^2 IV (belinostat 1000 mg/m^2), median (range; n)): 1 h
- Complete remission (CR) + partial remission (PR) (AML; single agent in AML): 17%
- Maximum Tolerated Dose (AML; single agent, D1,3,5 dosing schedule in a 21-day cycle): 59 mg/m^2
